According to ChEMBL document CHEMBL1201862, “PubChem BioAssay data set” (2004):
The source made the active and inactive calls.

Columns and labels:
[1] = target: T1, Polyadenylate-binding protein 1 (Homo sapiens, UniProt P11940); test: PABP1 MLLE–PAM2 interaction inhibitors, dose response, miRNA deadenylation inhibitor project, biochemical, fluorescence polarization, Cy5-PAM2 peptide, secondary (AID 602260); format: functional; details: read-out: IC50_Mean
[2] = target: T1, Polyadenylate-binding protein 1; test: PABP1 MLLE–PAM2 binding inhibitor potency, dose response, biochemical, fluorescence polarization, FITC-PAM2 peptide (AID 602259); format: functional; details: read-out: IC50_Mean
[3] = cells
[4] = target: T2, Sentrin-specific protease 8 (Homo sapiens, UniProt Q96LD8); format: functional;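 further: luminescence read-out of SENP8 inhibition, dose-response confirmation following an ultra-high-throughput screen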
T2 sequence (Q96LD8 whole entry): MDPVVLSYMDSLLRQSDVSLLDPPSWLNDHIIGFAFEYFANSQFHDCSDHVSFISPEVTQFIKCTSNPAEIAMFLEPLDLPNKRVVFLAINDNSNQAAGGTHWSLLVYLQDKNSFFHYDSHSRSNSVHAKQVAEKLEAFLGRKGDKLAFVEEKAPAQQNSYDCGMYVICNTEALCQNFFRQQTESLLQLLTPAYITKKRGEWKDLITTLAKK

[5] = target: T3, Caspase-3 (Homo sapiens, UniProt P42574); format: functional;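 further: Dose-response selectivity test against caspase-3 for candidate inhibitors of sentrin-specific proteases (SENPs)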
T3 sequence (P42574 whole entry): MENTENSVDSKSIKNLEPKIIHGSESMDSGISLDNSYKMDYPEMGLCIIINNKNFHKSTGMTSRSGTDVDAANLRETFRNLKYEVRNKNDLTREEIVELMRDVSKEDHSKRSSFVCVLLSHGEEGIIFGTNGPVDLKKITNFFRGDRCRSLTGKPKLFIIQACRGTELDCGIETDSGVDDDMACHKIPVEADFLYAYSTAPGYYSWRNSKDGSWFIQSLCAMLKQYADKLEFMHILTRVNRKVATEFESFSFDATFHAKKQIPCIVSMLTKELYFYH

[6] = target: T4, Sentrin-specific protease 6 (Homo sapiens, UniProt Q9GZR1); format: functional;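 further: Luminescence-based dose-response confirmatory assay of SENP6 inhibition, following up an ultra-high-throughput screen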
T4 sequence (Q9GZR1 whole entry): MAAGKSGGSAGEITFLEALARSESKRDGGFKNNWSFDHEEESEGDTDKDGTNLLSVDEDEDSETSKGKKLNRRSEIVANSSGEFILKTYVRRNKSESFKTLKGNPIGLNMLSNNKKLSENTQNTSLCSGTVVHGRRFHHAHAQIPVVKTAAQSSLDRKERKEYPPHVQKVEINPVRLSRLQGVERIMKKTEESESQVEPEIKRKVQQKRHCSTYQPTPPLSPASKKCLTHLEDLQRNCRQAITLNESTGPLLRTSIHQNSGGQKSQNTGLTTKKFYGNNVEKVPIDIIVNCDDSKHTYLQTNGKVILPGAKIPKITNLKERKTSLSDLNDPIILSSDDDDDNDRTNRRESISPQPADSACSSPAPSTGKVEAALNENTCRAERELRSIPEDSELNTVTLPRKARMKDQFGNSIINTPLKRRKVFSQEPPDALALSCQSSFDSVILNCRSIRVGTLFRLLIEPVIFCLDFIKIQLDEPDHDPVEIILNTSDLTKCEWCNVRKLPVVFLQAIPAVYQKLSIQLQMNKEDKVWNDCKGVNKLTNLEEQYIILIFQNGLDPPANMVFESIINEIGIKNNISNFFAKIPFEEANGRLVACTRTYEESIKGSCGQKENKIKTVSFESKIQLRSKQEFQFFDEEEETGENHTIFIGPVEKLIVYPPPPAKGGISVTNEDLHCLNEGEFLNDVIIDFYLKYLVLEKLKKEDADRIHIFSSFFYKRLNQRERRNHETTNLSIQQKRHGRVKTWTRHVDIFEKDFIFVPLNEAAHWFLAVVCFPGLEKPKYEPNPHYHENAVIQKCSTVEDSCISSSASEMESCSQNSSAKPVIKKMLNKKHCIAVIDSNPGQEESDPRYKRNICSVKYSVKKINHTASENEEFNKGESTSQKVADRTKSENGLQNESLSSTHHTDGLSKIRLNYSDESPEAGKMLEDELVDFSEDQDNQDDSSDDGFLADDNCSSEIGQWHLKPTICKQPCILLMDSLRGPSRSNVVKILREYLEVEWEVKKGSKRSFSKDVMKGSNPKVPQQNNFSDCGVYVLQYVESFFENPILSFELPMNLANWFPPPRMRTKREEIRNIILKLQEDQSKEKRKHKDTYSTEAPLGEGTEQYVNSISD

[7] = target: T5, Mannose-6-phosphate isomerase (Homo sapiens, UniProt P34949); test: human PMI inhibitors, high substrate, primary screen, biochemical, fluorescence intensity, high mannose 6-phosphate (AID 1220)
T5 sequence (P34949 whole entry): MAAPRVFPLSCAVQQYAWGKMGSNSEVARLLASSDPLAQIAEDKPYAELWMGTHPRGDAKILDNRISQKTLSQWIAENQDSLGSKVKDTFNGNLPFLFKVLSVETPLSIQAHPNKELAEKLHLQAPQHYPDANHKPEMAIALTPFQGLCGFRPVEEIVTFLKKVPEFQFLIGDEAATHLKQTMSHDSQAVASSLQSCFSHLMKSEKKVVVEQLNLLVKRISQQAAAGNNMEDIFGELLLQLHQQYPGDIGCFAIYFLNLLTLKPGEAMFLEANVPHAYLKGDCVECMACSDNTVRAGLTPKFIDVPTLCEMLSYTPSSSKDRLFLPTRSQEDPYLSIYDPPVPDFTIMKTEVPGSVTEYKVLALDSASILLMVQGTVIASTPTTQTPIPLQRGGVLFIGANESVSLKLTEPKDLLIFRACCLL

[8] = cells; format: functional, cell-based
[9] = luciferase reporter signal reduction – luminescence, H4-C neuroglioblastoma cells, dose response (AID 2458); format: functional, cell-based;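 further: H4 neuroglioblastoma cells stably carrying a luciferase reporter gene fusion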
[10] = inhibitors of SNCA 5'UTR-driven reporter translation, confirmation, H4 neuroglioma cells, luminescence (AID 1988); format: functional, cell-based
[11] = inhibitors of firefly luciferase expression or activity, dose response, H4 neuroglioma cells, luminescence (AID 1990); format: functional, cell-based
[12] = inhibitors of SNCA 5'UTR-driven translation, confirmation, luminescence, H4 neuroglioblastoma cells, dose confirmation (AID 2454); format: functional, cell-based;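 further: H4 neuroglioblastoma cells carrying an alpha-synuclein 5'UTR luciferase reporter; potency for inhibition of the luciferase signal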
[13] = Luminescence Cell-Based Dose Response HTS to Identify Inhibitors of 5'UTR Stem-Loop Driven Prion Protein mRNA Translation in H4 Neuroglioblastoma Cells. [Related pubchem assays: 1827 (Project Summary), 1813 (Primary HTS)]; format: functional
[14] = target: Heat shock protein HSP 90-alpha (Homo sapiens, UniProt P07900); format: functional, organism-based
[15] = HEp-2 cell cytotoxicity, dose response, cytotoxicity control for RSV inhibitor project, HTS (AID 2410); format: functional; details: human respiratory syncytial virus
[16] = target: Induced myeloid leukemia cell differentiation protein Mcl-1 (Homo sapiens, UniProt Q07820); format: functional
[17] = THP-1 cell cytotoxicity, dose response, cytotoxicity control for Vif-APOBEC3G degradation inhibitor project, THP-1 cells (AID 1117359); format: functional; details: Human immunodeficiency virus 1, THP-1
[18] = target: DNA dC->dU-editing enzyme APOBEC-3G (Homo sapiens, UniProt Q9HC16); test: Dose Response confirmation of small molecule APOBEC3G DNA Deaminase Inhibitors via a fluorescence-based single-stranded DNA deaminase assay. [Related pubchem assays (depositor defined):AID493012, AID493028]; format: functional
[19] = target: DNA dC->dU-editing enzyme APOBEC-3A (Homo sapiens, UniProt P31941); test: APOBEC3A DNA deaminase inhibitors, dose response, biochemical (AID 504722); format: functional
[20] = MC4R antagonists, dose response, counter-screen for LGR2 antagonist project, cell-based, plate reader, cherry pick (AID 743444); format: functional;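 further: transfected HEK 293 cells stimulated with alpha-MSH peptide; potency of inhibitors of the alpha-MSH evoked signal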
[21] = LGR2 antagonists, dose response, cell-based, HEK293, CRE-luciferase reporter, cherry pick, set 2 (AID 743343); format: functional;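 further: transfected cells were stimulated with diluted bursicon conditioned medium after compound addition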
[22] = target: Cytochrome P450 2C19 (Homo sapiens, UniProt P33261); test: Cytochrome panel assay with activity outcomes. Panel member name: p450-cyp2c19 Compounds with AC50 equal or less than 10 uM are considered active; format: functional; details: read-out: AC50
[23] = growth suppression of PTEN-null colon cells, dose response, cell-based, HCT116 PTEN knockout (AID 1047); format: functional;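 further: HCT116 colon tumor cells with PTEN knocked out; cells exposed to compound for 60 hours before readout; potency for loss of cell viability measured by luminescence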
[24] = growth suppression of beta-catenin-knockout colon cells, dose response, cell-based, HCT116, human colon tumor (AID 1045); format: functional;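 further: HCT116 colon tumor cells with beta catenin knocked out; cells exposed to compound for 60 hours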
[25] = cytotoxicity toward NIH3T3 fibroblasts, dose response, counter-screen, cell-based, ATP luminescence, mouse fibroblasts (AID 2010); format: functional;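 further: cells exposed to compound for about 90 hours before reading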
[26] = inhibitors of intracellular T. cruzi replication, confirmation, NIH3T3 host cells, beta-gal luminescence (AID 2044); format: functional, cell-based;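 further: intracellular parasites grown in NIH/3T3 mouse fibroblasts as host cells; luminescent beta-galactosidase reporter signal from transgenic T. cruzi replicating inside host cells; inhibitors lower the luminescence signal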

T1 sequence (P11940 whole entry): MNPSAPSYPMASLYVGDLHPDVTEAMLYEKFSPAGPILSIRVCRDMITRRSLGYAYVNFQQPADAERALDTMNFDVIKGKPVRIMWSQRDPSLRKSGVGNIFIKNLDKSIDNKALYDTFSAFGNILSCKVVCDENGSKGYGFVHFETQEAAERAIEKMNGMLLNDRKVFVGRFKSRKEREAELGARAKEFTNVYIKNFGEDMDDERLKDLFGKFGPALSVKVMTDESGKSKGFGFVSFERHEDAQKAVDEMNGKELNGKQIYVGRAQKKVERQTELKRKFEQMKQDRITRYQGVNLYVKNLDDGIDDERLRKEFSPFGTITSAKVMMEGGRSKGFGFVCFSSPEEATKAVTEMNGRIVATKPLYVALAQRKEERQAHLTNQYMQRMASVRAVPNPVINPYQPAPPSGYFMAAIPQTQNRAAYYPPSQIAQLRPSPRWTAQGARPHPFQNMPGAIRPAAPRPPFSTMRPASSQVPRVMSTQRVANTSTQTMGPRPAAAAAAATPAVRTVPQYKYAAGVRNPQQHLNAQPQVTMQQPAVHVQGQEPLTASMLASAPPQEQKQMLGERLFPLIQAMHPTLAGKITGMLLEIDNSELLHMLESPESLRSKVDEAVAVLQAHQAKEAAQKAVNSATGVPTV
DNA dC->dU-editing enzyme APOBEC-3G, sequence (Q9HC16 whole entry): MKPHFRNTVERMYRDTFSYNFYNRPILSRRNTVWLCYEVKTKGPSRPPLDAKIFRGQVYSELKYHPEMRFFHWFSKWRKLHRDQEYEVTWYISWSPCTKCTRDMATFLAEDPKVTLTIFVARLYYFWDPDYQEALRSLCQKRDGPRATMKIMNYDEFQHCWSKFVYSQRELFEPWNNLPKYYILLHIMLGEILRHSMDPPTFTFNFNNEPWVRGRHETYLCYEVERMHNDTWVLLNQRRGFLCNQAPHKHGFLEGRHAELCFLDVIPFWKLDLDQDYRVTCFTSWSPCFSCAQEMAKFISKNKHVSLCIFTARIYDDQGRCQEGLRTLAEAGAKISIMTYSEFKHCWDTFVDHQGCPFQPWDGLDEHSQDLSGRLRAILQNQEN
DNA dC->dU-editing enzyme APOBEC-3A, sequence (P31941 whole entry): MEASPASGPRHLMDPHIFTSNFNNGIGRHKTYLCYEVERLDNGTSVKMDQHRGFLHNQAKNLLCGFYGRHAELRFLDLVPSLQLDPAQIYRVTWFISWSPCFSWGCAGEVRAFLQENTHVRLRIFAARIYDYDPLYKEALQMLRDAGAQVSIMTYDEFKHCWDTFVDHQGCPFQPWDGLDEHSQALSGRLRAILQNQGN
Induced myeloid leukemia cell differentiation protein Mcl-1, sequence (Q07820 whole entry): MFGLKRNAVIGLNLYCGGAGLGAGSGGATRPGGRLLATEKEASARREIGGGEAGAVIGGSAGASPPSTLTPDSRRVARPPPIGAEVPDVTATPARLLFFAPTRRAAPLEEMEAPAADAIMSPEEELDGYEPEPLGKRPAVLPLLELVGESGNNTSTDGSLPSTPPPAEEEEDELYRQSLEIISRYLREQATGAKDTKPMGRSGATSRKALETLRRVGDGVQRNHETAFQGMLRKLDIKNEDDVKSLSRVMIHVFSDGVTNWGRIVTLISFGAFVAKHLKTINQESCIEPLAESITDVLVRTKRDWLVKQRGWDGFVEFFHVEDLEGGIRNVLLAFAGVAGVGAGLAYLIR
Cytochrome P450 2C19, sequence (P33261 whole entry): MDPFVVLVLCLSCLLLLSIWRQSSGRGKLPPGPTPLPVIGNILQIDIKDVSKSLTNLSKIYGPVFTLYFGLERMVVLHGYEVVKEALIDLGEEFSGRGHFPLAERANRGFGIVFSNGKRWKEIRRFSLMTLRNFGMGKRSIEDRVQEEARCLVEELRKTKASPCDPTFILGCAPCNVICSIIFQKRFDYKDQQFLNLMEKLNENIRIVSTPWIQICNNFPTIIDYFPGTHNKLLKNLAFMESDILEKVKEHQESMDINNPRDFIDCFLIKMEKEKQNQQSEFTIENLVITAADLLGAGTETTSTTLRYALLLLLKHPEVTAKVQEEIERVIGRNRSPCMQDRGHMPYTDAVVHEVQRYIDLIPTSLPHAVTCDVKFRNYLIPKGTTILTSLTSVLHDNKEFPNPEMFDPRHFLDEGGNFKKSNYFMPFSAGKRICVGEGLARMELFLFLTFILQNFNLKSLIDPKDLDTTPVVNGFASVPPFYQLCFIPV

SMILES: CN(C)c1oc(-c2ccccc2[N+](=O)[O-])nc1C#N
- IC50 [1]: > 66 µM (inactive)
- IC50 [2]: > 66 µM (inactive)

SMILES: COCCCNC(=O)c1ccc(Cn2c(=O)c3ccccc3n(Cc3ccc(C)cc3)c2=O)cc1
- IC50 [3]: 2.98 µM (active)

SMILES: Cc1ccc(Cl)c2sc(NC(=O)C3=COCCO3)nc12
- IC50 [4]: > 100 µM (inactive)
- IC50 [5]: 63.4 µM (active)
- IC50 [6]: 13.1 µM (active)

SMILES: O=C(N/N=C/c1ccc(N2CCOCC2)o1)c1cccc([N+](=O)[O-])c1
- IC50 [7]: > 50 µM (not active)

SMILES: c1ccc(-c2noc(-c3ccc4ccccc4c3)n2)cc1
- EC50 [8]: 0.694 µM (inconclusive)
- EC50 [9]: 0.974 µM (active)
- EC50 [10]: < 0.1 µM (active)
- EC50 [11]: < 0.1 µM (active)
- EC50 [12]: 0.636 µM (active)
- EC50 [13]: 8.76 µM (active)

SMILES: Cc1ccc(N2C(=O)C3C4C=CC(CN=C(S)N5CCN(c6ccccc6)CC5)(O4)C3C2=O)cc1 (configuration not stated)
- AC50 [14]: 14.9 µM (active)

SMILES: O=C(CNc1cccc(C(F)(F)F)c1)N/N=C/c1cn(-c2ccccc2)nc1-c1ccccc1
- IC50 [3]: 19.8 µM (active)
- CC50 [15]: > 50 µM (active)

SMILES: Cc1ccc(NC(S)=NCC23C=CC(O2)C2C(=O)N(c4ccc(C)cc4)C(=O)C23)cc1 (configuration not stated)
- AC50 [14]: 4.6 µM (active)

SMILES: O=C(/C=C/c1cccs1)N1CCN(c2ccc(O)cc2)CC1
- IC50 [16]: 5.63 µM (active)
- CC50 [17]: > 40 µM (active)

SMILES: COc1ccc(OCc2n[nH]c(=S)n2N)cc1
- IC50 [7]: 21.4 µM (active)
- IC50 [18]: 7.1 µM (active)
- IC50 [19]: > 100 µM (inactive)

SMILES: CCN1CCN(C(=O)C(C)Nc2cc(Cl)c(OC)cc2OC)CC1 (configuration not stated)
- IC50 [7]: > 50 µM (not active)

SMILES: CSc1ccc(NC(=O)Nc2cc(C)ccn2)cc1
- AC50 [20]: 9.27 µM (active)
- AC50 [21]: 3.7 µM (active)
- AC50 [22]: 3.98 µM (inconclusive)

SMILES: Cc1ccc2[nH]c(C)c(/C=N/Nc3nc4ccccc4s3)c2c1
- EC50 [23]: 18 µM (active)
- AC50 [14]: 5.3 µM (active)
- EC50 [24]: 19.7 µM (active)
- CC50 [15]: 14.6 µM (active)
- EC50 [25]: > 60 µM (inconclusive)
- EC50 [26]: 2.24 µM (active)
